The results in this text go back to paper PMC10882719 (Frontiers in Neuroscience, 2024).

Like-named read-outs stand apart in the source and are kept apart here.

What all share (type): cell-based
Assay [1] concerns the target T1, 168 GPCRs (Homo sapiens, UniProt P24530).
T1 construct: host or cells: PathHunter cell lines
T1 sequence (P24530 27-442): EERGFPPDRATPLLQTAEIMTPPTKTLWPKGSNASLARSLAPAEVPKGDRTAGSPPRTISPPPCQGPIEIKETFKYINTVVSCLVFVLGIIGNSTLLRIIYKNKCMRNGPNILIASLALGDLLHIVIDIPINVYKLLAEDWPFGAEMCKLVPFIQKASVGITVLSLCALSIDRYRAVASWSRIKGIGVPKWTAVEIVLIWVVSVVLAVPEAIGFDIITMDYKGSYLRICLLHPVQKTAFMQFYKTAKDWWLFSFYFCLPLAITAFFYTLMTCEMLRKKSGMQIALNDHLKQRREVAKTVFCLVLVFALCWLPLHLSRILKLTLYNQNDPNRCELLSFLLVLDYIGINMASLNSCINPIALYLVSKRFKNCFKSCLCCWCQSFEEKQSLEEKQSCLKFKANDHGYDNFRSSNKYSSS
Particulars: EDNRB. The protocol:
(§1) Studies were performed at Eurofins DiscoverX Corporation (Fremont, CA) using the GPCRmax assay according to the manufacturer’s protocols. […] Activity greater than 30% typically indicates agonist activity and inhibition greater than 50% indicates antagonist activity. This assay uses enzyme fragment complementation with […] as the functional reporter. When a GPCR is activated, […] is recruited and the reporter is detectable. GPCRmax offers a high-throughput screen of 168 GPCRs for agonist or antagonist activity. Briefly, PathHunter cell lines were propagated, seeded into 384-well microplates and incubated at 37°C. […] Microplates were read following signal generation with a PerkinElmer Envision™ instrument for chemiluminescent signal detection. Compound activity was analyzed using CBIS data analysis suite (ChemInnovation, CA) to determine raw values (RLU). For agonist mode assay, percentage activity was calculated using the following formula: % Activity =100% × (mean RLU of test sample - mean RLU of vehicle control) / (mean MAX control ligand - mean RLU of vehicle control). For antagonist mode assay, percentage inhibition was calculated using the following formula: % Inhibition =100% × (1 - (mean RLU of test sample - mean RLU of vehicle control) / (mean RLU of EC80 control - mean RLU of vehicle control)).

Assay [2] has as its target T2, 168 GPCRs (Homo sapiens, UniProt P25090).
T2 construct: host or cells: PathHunter cell lines
T2 sequence (P25090 1-351): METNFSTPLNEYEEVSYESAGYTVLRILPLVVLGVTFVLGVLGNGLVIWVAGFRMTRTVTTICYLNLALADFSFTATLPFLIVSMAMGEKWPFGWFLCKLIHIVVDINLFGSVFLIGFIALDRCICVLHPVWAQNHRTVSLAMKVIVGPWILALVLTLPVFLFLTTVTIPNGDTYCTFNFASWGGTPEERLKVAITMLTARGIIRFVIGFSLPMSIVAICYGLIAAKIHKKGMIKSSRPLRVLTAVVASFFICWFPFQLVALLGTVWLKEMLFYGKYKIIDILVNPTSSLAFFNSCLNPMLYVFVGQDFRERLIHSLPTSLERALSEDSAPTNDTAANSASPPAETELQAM
The protocol: as §1

In assay [3] the target is T3, 168 GPCRs (Homo sapiens, UniProt P41587).
T3 construct: host or cells: PathHunter cell lines
T3 sequence (P41587 24-438): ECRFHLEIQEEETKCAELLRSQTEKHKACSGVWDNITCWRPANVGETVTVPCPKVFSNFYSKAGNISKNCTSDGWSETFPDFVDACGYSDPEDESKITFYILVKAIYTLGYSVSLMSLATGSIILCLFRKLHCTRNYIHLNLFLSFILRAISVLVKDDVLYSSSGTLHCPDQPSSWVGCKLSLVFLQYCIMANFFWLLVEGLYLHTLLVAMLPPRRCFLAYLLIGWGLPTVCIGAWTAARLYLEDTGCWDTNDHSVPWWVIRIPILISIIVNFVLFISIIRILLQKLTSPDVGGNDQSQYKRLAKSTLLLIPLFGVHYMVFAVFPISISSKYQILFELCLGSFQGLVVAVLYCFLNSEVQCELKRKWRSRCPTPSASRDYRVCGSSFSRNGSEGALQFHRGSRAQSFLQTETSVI
Particulars: VIPR2. The procedure:
as §1

Assay [4] addresses T4, 168 GPCRs (Homo sapiens, UniProt P48546).
T4 construct: host or cells: PathHunter cell lines
T4 sequence (P48546 22-466): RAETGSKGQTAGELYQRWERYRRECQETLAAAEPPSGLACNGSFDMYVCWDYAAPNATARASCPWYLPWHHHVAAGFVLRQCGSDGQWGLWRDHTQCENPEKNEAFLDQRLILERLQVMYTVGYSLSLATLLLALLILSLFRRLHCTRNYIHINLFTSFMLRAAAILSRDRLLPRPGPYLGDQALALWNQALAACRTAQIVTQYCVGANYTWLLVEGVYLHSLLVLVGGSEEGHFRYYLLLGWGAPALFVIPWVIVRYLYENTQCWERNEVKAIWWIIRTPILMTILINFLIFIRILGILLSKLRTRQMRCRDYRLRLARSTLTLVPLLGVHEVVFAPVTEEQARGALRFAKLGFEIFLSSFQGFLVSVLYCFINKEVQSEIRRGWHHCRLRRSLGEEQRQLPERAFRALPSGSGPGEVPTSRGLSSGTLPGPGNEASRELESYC
Particulars: GIPR. The protocol:
as §1

Assay [5] has as its target T5, 168 GPCRs (Homo sapiens, UniProt Q9GZQ6).
T5 construct: host or cells: PathHunter cell lines
The note with it: NPFFR1. The procedure: as §1

Assay [6] deals with T6, 168 GPCRs (Homo sapiens, UniProt Q9HC97).
T6 construct: host or cells: PathHunter cell lines
T6 sequence (Q9HC97 whole entry): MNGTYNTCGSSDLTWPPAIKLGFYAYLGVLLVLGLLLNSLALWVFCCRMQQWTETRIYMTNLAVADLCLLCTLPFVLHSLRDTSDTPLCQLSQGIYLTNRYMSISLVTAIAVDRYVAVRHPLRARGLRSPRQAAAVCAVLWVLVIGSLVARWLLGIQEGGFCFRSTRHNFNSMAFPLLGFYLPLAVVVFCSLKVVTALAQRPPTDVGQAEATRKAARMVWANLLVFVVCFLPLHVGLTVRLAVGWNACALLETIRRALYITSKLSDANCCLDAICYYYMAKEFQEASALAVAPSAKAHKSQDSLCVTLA
The protocol:
as §1

T5 sequence (Q9GZQ6 whole entry): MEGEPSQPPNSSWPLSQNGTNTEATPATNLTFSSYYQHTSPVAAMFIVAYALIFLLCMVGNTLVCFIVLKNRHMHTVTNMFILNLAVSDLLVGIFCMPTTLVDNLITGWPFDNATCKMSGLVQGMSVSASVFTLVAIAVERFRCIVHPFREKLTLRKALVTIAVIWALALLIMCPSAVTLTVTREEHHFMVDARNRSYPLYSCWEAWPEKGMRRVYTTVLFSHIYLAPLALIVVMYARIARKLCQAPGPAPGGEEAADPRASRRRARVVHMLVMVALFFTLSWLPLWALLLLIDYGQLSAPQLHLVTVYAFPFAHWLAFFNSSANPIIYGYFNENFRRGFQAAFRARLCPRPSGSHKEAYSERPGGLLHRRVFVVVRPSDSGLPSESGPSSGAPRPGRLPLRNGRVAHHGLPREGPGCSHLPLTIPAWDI

`CNC(C)C(=O)c1ccc2c(c1)OCO2` (stereo not drawn) [methylone]: the “% Agonist Activity” value was 0.7% on 168 GPCRs [1] (1 uM); -0.1% at 168 GPCRs [1] (10 uM); -0.5% at 168 GPCRs [2] (FPRL1, 1 uM); 0.1% on 168 GPCRs [2] (FPRL1, 10 uM); -0.4% on 168 GPCRs [3] (Conc 1 uM); -0.3% on 168 GPCRs [3] (Conc 10 uM). For the same compound, the “% Agonist Activity” value was -2.9% on 168 GPCRs [4] (1 uM); -5.8% on 168 GPCRs [4] (10 uM); -4.6% at 168 GPCRs [5] (Conc 1 uM); -5.6% at 168 GPCRs [5] (Conc 10 uM); 2.2% on 168 GPCRs [6] (GPR35, 1 uM); 2.5% at 168 GPCRs [6] (GPR35, 10 uM). For the same compound, the “% Antagonist Activity” value at 168 GPCRs [1] (1 uM) is 17.5%; at 168 GPCRs [1] (10 uM), 10.9%; at 168 GPCRs [2] (FPRL1, 1 uM), 12.3%; on 168 GPCRs [2] (FPRL1, 10 uM) it was 3.9%; on 168 GPCRs [3] (Conc 1 uM), -1.5%; at 168 GPCRs [3] (Conc 10 uM) it was -2.6%. Moreover, the “% Antagonist Activity” value is on record as -1% at 168 GPCRs [4] (1 uM); -5.1% on 168 GPCRs [4] (10 uM); 32% on 168 GPCRs [5] (Conc 1 uM); 27.1% on 168 GPCRs [5] (Conc 10 uM); 13.2% at 168 GPCRs [6] (GPR35, 1 uM); 7.3% on 168 GPCRs [6] (GPR35, 10 uM).

For the compound `CNC(C)Cc1ccc2c(c1)OCO2` (stereo not drawn) [MDMA, 3,4-Methylenedioxy methamphetamine, reference compound], the “% Agonist Activity” value on 168 GPCRs [1] (1 uM) is 0%; on 168 GPCRs [1] (10 uM), -0.3%; at 168 GPCRs [2] (FPRL1, 1 uM) it was -0.1%; on 168 GPCRs [2] (FPRL1, 10 uM), -0.1%; on 168 GPCRs [3] (Conc 1 uM) it was -1.6%; at 168 GPCRs [3] (Conc 10 uM) it was -0.7%. Besides, the “% Agonist Activity” value is given as -2.6% at 168 GPCRs [4] (1 uM); -3.3% on 168 GPCRs [4] (10 uM); -3.2% at 168 GPCRs [5] (Conc 1 uM); -5.5% on 168 GPCRs [5] (Conc 10 uM); 0.3% at 168 GPCRs [6] (GPR35, 1 uM); -1.5% on 168 GPCRs [6] (GPR35, 10 uM). For the same compound, the “% Antagonist Activity” value is reported as 2.5% on 168 GPCRs [1] (1 uM); 6.4% on 168 GPCRs [1] (10 uM); 14.8% at 168 GPCRs [2] (FPRL1, 1 uM); 16.7% on 168 GPCRs [2] (FPRL1, 10 uM); -1.1% on 168 GPCRs [3] (Conc 1 uM); 3.1% on 168 GPCRs [3] (Conc 10 uM). For the same compound, the “% Antagonist Activity” value was -0.1% at 168 GPCRs [4] (1 uM); -0.1% on 168 GPCRs [4] (10 uM); 17.7% on 168 GPCRs [5] (Conc 1 uM); 20.8% on 168 GPCRs [5] (Conc 10 uM); -1.1% on 168 GPCRs [6] (GPR35, 1 uM); 4.6% on 168 GPCRs [6] (GPR35, 10 uM).
